Structures can show the parent of a compound that is named as a salt. Where two headings read alike, the source gives them in different places.
How the values were obtained:
[1] = Validation screen: cytotoxicity without viral infection; details: human
[2] = system: single-stranded RNA (ssRNA) viruses; details: cited from earlier work
in vitro [3] = details: human, Relative Viability (%)
[4] = system: A/PuertoRico/8/1934 (H1N1) virus; experiment: microbe, parasite or virus in culture; type: cell-based, influenza A virus
[5] = system: A/PuertoRico/8/1934 (H1N1) virus; experiment: microbe, parasite or virus in culture; type: cell-based, influenza A virus; details: Influenza A virus, H1N1, U-937, 48 h
in vitro [6] = details: human
primary tumor = system: primary tumor; parameters: method as in Sakakitani et al., 2020; details: xenograft model; ref Sakakitani et al., 2020; cited from earlier work
oral cancer cells = system: oral cancer cells; parameters: method as in Sakakitani et al., 2020; details: ref Sakakitani et al., 2020; cited from earlier work
in vitro [7] = details: human; remark: listed apart in the source
[8] = system: A/Human/Hubei/3/2005 (H3N2); experiment: microbe, parasite or virus in culture; type: cell-based; details: Influenza A virus, H3N2, A549, 48 h, read-out: H3N2 IC50
in vitro [9] = details: human, A549 cells
[10] = system: Bovine Liver Catalase (BLC); parameters: method as in Shahraki et al., 2020; details: ref Shahraki et al., 2020; cited from earlier work
[11] = system: B/Human/Hubei/1/2007 (IBV); experiment: microbe, parasite or virus in culture; type: cell-based; details: Influenza B virus, MDCK, 48 h, read-out: IBV IC50
in vitro [12] = details: dog
[13] = Influenza A virus, H1N1, U-937, 48 h, read-out: NA Inhibition (%)

Compound | CC50 at 48 h ([1]; uninfected U937 cells) [µM] | antiviral properties, virus entry [2] | viability at 20 µM (in vitro [3]) [%] | inhibition at 20 µM [4, 13] [%] | IC50 [5] [µM] | CC50 at 48 h (in vitro [6]) [µM] | primary tumor growth (primary tumor) | mesenchymal cell markers and motility (oral cancer cells) | CC50 (in vitro [7]) [µM] | CC50 at 48 h [1] [µM] | IC50 [8] [µM] | CC50 (in vitro [9]) [µM] | catalase activity [10] | IC50 [11] [µM] | CC50 at 48 h (in vitro [12]) [µM] | inhibition at 20 µM ([4]; Influenza A virus, H1N1, U-937, 48 h; read-out: NA Inhibition (%)) [%]
CN1CCN(CCCN2c3ccccc3Sc3ccc(Cl)cc32)CC1 [Prochlorperazine dimaleate, Prochlorperazine dimaleate salt] | 38.4 | exhibits antiviral properties by disrupting clathrin redistribution | 93.5 | 63.9 | – | – | – | – | – | – | – | – | – | – | – | –
CC(COc1ccccc1)NC(C)C(O)c1ccc(O)cc1 (stereo not drawn) [Isoxsuprine, Isoxsuprine hydrochloride] | – | – | 105 | 86.5 | 1.5 | > 900 | effectively suppressed primary tumor growth | downregulates mesenchymal cell markers and reduces motility | > 900 | > 80 | 34.3 | 530 | reduce catalase activity | 3.4 | > 400 | –
O=C(c1ccc(OCCCc2cnc[nH]2)cc1)C1CC1 [Ciproxifan] | – | – | 131 | – | 1.4 | 556 | – | – | 425 | > 80 | 14.9 | 556 | – | 1.8 | > 400 | 75.2

Reference: PMC12069340 (Frontiers in Cellular and Infection Microbiology, 2025)
